In patent US5132424A, “Pyrazolo-pyrrolo-pyrimidine-diones” (The Upjohn Company, priority 1991, dated 1992):

Key:
[1] = system: ACAT enzyme; conditions: known drug; cited from earlier work
[2] = system: ACAT enzyme; test: ACAT Inhibition Assay (inhibition of cholesterol esterification in cultured Fu5AH rat hepatoma cells); format: cell-based; design: key to Activity: Active: Compounds with ACAT inhibiting activity equal to, or greater than, that of chloropromazine are declared active; conditions: for % Inhib. of Chol. Esterf.: Fu5AH cells, 18 hours; for Activity: compared with chlorpromazine
From the text: A standard in vitro test system designed to identify compounds capable of inhibitory the ACAT enzyme in cultured Fu5AH rat hepatoma cells which was used to test the compounds of this invention, among others, is described hereinbelow.
Since the ACAT enzyme in Fu5AH cells is similar if not identical to the ACAT enzyme in arterial tissue in valuable, warm-blooded animals, including humans, the Fu5AH cell test represents a more efficient, simplified and economical means of screening for ACAT inhibitors than similar assays which depend upon the use of arterial tissue and arterial subfractions as the source of the ACAT enzyme.
For our in vitro test the Fu5AH rat hepatoma cell line was selected as our source of the ACAT enzyme since this particular cell line mimicked important characteristics of human and valuable animal arterial cells during the development of atherosclerosis. The Fu5AH cells accumulate cholesterol extensively when incubated with hyperlipemic plasma proteins; more importantly, Fu5HA cells accumulated the cholesterol predominantly as the esterified form through the action of the ACAT enzyme. See Rothblat, G. H., "Cholesteryl Ester Metabolism in Tissue Culture Cell. I. Accumulation in Fu5AH Rat Hepatoma Cells", Lipids, 9, (1974) page 526.
The Fu5AH cells used in our in vitro assay were first acquired from G. H. Rothblat, supra, of the Medical College of Pa.
The Fu5AH rat hepatoma cell-line was derived from the Reuber H-35 rat hepatoma. (See Reuber, M.D., "A Transplantable Bilesecreting Hepatocellular Carcinoa in the Rat", J. Natl., Cancer Inst., 26 (1961), page 891. The cell-line is maintained in Eagle's Minimal Essential Medium (MEM, GiBCO) supplemented with 5% bovine fetal calf serum. Incubation is at 36° C. in an atmosphere of 5% CO2 in air (Hotpack, Model 351922). Cells from stock cultures, grown to confluency in 25 cm^2 flasks (Falcon) containing 10 ml. medium, are detached with 0.25% trypsin in 1% ethylenediaminetetraacetic acid (EDTA) (Gibco), diluted 1:10 with MEM and mixed by agitation through a pipette which serves to disrupt the cellular clumps. Stock cultures are replenished with fresh medium at 3 to 4 day intervals.
One ml. aliquots of the diluted stock suspension described above are then transferred to 60 mm. dishes (Falcon) containing four ml. MEM and the seeded cells are allowed to grow to confluence (three days). At confluence, the medium is removed by aspiration and the cells are washed once with MEM. Five ml. of MEM supplemented with 5% hyperlipemic rabbit serum (HRS) (HRS is obtained from male New Zealane rabbits fed Purina Chow® rabbit feed supplemented with 1% cholesterol and 3% peanut oil (w/w/w/) for two to three weeks. Pooled sera from two or more rabbits are filtered through a 0.45 mμ filter (Nalgene) and stored frozen in convenient aliquots until used) and containing 1μ Ci/ml of ^3 H-cholesterol are then added to the dishes as the experimental (assay) medium. The experimental medium is labeled with 1,2-^3 H(N)-cholesterol (sp. act. approx. 40-60 Ci/mol, New Zealand Nuclear Corp.) prior to its addition to the confluent cultures and is prepared as follows. Five ml. of HRS is diluted with approximately 20 ml of MEM and the mixture is labeled by the addition of 100 μCi ^3 H-cholesterol dissolved in 100 μl absolute ethyl alcohol. The resulting mixture is then incubated for four hours at 36° C. to permit equilibration of the labeled cholesterol with the serum lipoprotein-cholesterol. After the equilibration period, the mixture is diluted to 100 ml. with MEM and used as the labeled assay medium. Following the addition of the labeled medium to the dishes, dimethylsulfoxide solutions of the test substances and the positive standard chloropromazine HCl (1 mg/ml) are added to the cultures in volumes of 25, 50, […]; control cultures receive equivalent volumes of dimethylsufoxide alone. […]

SMILES	ACAT enzyme inhibition (in words) [1]	activity in the ACAT enzyme screen (in words) ([2]; starting material)	% Inhib. of Chol. Esterf. ([2]; 5.0 ug/ml) [%]	Activity ([2]; 5.0 ug/ml)	% Inhib. of Chol. Esterf. ([2]; 10.0 ug/ml) [%]	Activity ([2]; 10.0 ug/ml)	% Inhib. of Chol. Esterf. ([2]; 15.0 ug/ml) [%]	Activity ([2]; 15.0 ug/ml)	% Inhib. of Chol. Esterf. ([2]; 25.0 ug/ml (so in the source)) [%]	Activity ([2]; 25.0 ug/ml (so in the source))
CC(C)NC[C@H](O)COc1cccc2ccccc12 (racemic) [propanolol]	ACAT enzyme inhibiting activity									
O=C1c2[nH]c3cc(-c4ccccc4)nn3c(=O)c2CN1C1CCCCC1 [6-Cyclohexyl-4,7-dihydro-2-phenyl-5H-pyrazolo[1,5-a]pyrrolo[3,4-d]pyrimidine-5,8(6H)-dione, reference compound]		inactive								
CCCCCCn1c2c(c(=O)n3nc(-c4ccccc4)cc13)CN(C1CCCCC1)C2=O [Example 3, 6-Cyclohexyl-6,7-dihydro-4-hexyl-2-phenyl-4H-pyrazolo[1,5-a]pyrrolo[3,4-d]pyrimidine-5,8-dione]			43.4	Active	48.2	Active	49.2	Active		
CCOc1ccc(-c2cc3n(Cc4ccccc4)c4c(c(=O)n3n2)CN(C2CCCCC2)C4=O)cc1 [Example 6, 6-Cyclohexyl-6,7-dihydro-2-(4-ethoxyphenyl)-4-(phenylmethyl)-(4H)-pyrazolo[1,5-a]pyrrolo[3,4-d]pyrimidine-5,8-dione]			49.8	Active	75.4	Active	87.2	Active		
O=C1c2c(c(=O)n3nc(-c4ccccc4)cc3n2Cc2ccccc2)CN1c1ccccc1 [Example 7, 6,7-Dihydro-2,6-diphenyl-4-(phenylmethyl)-4H-pyrazolo[1,5-a]pyrrolo[3,4-d]-pyrimidine-5,8-dione]			21.2	Active	17.6	Inactive	15.0	Inactive		
O=C1c2c(c(=O)n3nc(-c4ccccc4)cc3n2Cc2ccccc2)CN1Cc1ccccc1 [Example 8, 4,6-Bis(phenylmethyl)-6,7-dihydro-2-phenyl-4H-pyrazolo[1,5-a]pyrrolo[3,4-d]pyrimidine-5,8-dione]			60.8	Active	89.5	Active	92.3	Active		
O=C1c2c(c(=O)n3nc(-c4ccccc4)cc3n2Cc2ccccc2)CCN1C1CCCCC1 [Example 9, 6-Cyclohexyl-2-phenyl-4-(phenylmethyl)-5,6,7,8-tetrahydro-4H-pyrazolo[1,5-a]pyrido[3,4-d]pyrimidine-5,9-dione]			53.2	Active	82.1	Active	89.8	Active		
O=C1c2c(c(=O)n3ncc(-c4ccccc4)c3n2Cc2ccccc2)CN1C1CCCCC1 [Example 10, 6-Cyclohexyl-6,7-dihydro-3-phenyl-4-(phenylmethyl)-4H-pyrazolo-[1,5-a]pyrrolo[3,4-d]-pyrimidine-5,8-dione]			34.4	Active	20.9	Inactive	9.1	Inactive		
O=C(Cn1c2c(c(=O)n3nc(-c4ccc(Cl)cc4)cc13)CN(C1CCCCC1)C2=O)c1ccccc1 [Example 11, 4-(Benzoylmethyl)-2-(4-chlorophenyl)-6-cyclohexyl-6,7-dihydro-4H-pyrazolo[1,5-a]pyrrolo[3,4-d]pyrimidine-5,8-dione]			78.2	Active	84.5	Active			89.2	Active
O=C1c2c(c(=O)n3nc(-c4ccccc4)cc3n2CC(O)c2ccccc2)CN1C1CCCCC1 (stereo not drawn) [Example 14, 6-Cyclohexyl-6,7-dihydro-4-(2-hydroxy-2-phenylethyl)-2-phenyl-4H-oyrazolo[1,5-a] pyrrolo[3,4-d]pyrimidine-5,8-dione]			49.6	Active	65.9	Active	40.2	Inactive		
C=CCOc1ccc(-c2cc3n(Cc4ccccc4)c4c(c(=O)n3n2)CN(C2CCCCC2)C4=O)cc1 [Example 15, 6-Cyclohexyl-6,7-dihydro-2-[4-(2-propenyloxy)phenyl]-4-phenylmethyl-4H-pyrazolo[1,5-a]pyrrolo[3,4-d]pyrimidine-5,8-dione]			36.0	Active	65.3	Active	84.3	Active		
O=C1c2c(c(=O)n3nc(-c4ccc(O)cc4)cc3n2Cc2ccccc2)CN1C1CCCCC1 [Example 16, 6-Cyclohexyl-6,7-dihydro-2-(4-hydroxyphenyl)-4-phenyl-methyl-4H-pyrazolo[1,5-a]pyrrolo[3,4-d]pyrimidine-5,8-dione]			4.3	Inactive	32.7	Inactive	66.5	Active		
CN1C(=O)CN=C(c2ccccc2)c2cc(Cl)ccc21 [diazepam]	ACAT enzyme inhibiting activity									
COc1ccc([C@@H]2Sc3ccccc3N(CCN(C)C)C(=O)[C@@H]2OC(C)=O)cc1 [diltiazem]	inhibit the ACAT enzyme									
COC(=O)C1=C(C)NC(C)=C(C(=O)OC)C1c1ccccc1[N+](=O)[O-] [nifedipine]	inhibit the ACAT enzyme									
COc1ccc(CCN(C)CCCC(C#N)(c2ccc(OC)c(OC)c2)C(C)C)cc1OC (stereo not drawn) [verapamil]	inhibit the ACAT enzyme									
